In patent US20240393694A1, “METAL CONTAINING PHOTORESIST DEVELOPER COMPOSITION, AND METHOD OF FORMING PATTERNS INCLUDING STEP OF DEVELOPING USING THE COMPOSITION” (SAMSUNG SDI CO., LTD., priority 2023, published 2024):

Test: pKa of the sulfonimide-based compound (Table 1)

Compound	pKa
O=C1NC(=O)c2ccccc21 [Phthalimide]	8.3
O=C1CCC(=O)N1 [Succimide]	9.5
